# Structures can show the parent of a compound that is named as a salt.
# Biological target: T1, full length SGK1 (Homo sapiens, UniProt O00141)
# T1 construct: 125 μM full length SGK1 (Life Technologies Part #PR7358A); purchased Life Technologies PR7358A
# T1 sequence (O00141 1-431): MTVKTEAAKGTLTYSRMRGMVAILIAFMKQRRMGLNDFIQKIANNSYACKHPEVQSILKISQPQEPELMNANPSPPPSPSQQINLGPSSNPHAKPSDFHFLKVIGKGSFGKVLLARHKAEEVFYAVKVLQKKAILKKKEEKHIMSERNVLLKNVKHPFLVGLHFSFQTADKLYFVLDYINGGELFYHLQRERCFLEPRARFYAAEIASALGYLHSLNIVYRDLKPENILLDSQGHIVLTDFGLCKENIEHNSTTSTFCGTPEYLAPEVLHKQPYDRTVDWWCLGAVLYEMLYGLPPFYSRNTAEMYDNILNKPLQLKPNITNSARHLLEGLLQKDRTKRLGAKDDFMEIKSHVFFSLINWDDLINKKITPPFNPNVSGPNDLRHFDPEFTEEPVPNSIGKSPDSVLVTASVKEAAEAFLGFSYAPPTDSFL
# Experiment: SGK1 inhibition Assay A (Caliper LabChip electrophoretic separation of fluorescent peptide substrate and phosphorylated product)
# Format: biochemical
# Conditions: Assay A; 20 μM ATP, 40 min incubation; read-out: SGK1 IC50
row,SMILES,IC50 [nM]
1,"Nc1ncnn2c(-c3ccc(-n4cnnn4)c(F)c3)cc(N3CCC[C@@H](NC(=O)c4ccc(Cl)s4)C3)c12 [Example 245, (R)-N-(1-(4-amino-7-(3-fluoro-4-(1H-tetrazol-1-yl)phenyl)pyrrolo[2,1-f][1,2,4]triazin-5-yl)piperidin-3-yl)-5-chlorothiophene-2-carboxamide]",1
2,Nc1ncnn2c(-c3cnc4ncnn4c3)cc(N3CCC[C@@H](NC(=O)c4ccc(Cl)s4)C3)c12 [Example 246],13
3,Nc1ncnn2c(-c3ccc4ncnn4c3)cc(N3CCC[C@@H](NC(=O)c4ccc(Cl)s4)C3)c12 [Example 247],12
4,"Nc1ncnn2c(-c3ccc(C(F)F)nc3)cc(N3CCC[C@@H](NC(=O)c4ccc(Cl)s4)C3)c12 [Example 248, (R)-N-(1-(4-amino-7-(6-(difluoromethyl)pyridin-3-yl)pyrrolo[2,1-f][1,2,4]triazin-5-yl)piperidin-3-yl)-5-chlorothiophene-2-carboxamide, TFA]",3
5,"Nc1ncnn2c(-c3ccc(-n4cnnn4)cc3)cc(N3CCC[C@@H](NC(=O)c4ccc(Cl)s4)C3)c12 [Example 249, (R)-N-(1-(7-(4-(1H-tetrazol-1-yl)phenyl)-4-aminopyrrolo[2,1-f][1,2,4]triazin-5-yl)piperidin-3-yl)-5-chlorothiophene-2-carboxamide, TFA]",1
6,"N#Cc1ncn(-c2ccc(-c3cc(N4CCC[C@@H](NC(=O)c5ccc(Cl)s5)C4)c4c(N)ncnn34)cn2)n1 [Example 250, (R)-N-(1-(4-amino-7-(6-(3-cyano-1H-1,2,4-triazol-1-yl)pyridin-3-yl)pyrrolo[2,1-f][1,2,4]triazin-5-yl)piperidin-3-yl)-5-chlorothiophone-2-carboxamide, TFA]",3
7,"Nc1ncnn2c(-c3ccc(-n4cncn4)nc3)cc(N3CCC[C@@H](NC(=O)c4ccc(Cl)s4)C3)c12 [Example 251, (R)-N-(1-(7-(6-(1H-1,2,4-triazol-1-yl)pyridin-3-yl)-4-aminopyrrolo[2,1-f][1,2,4]triazin-5-yl)piperidin-3-yl)-5-chlorothiophene-2-carboxamide, TFA]",1
8,Nc1ncnn2c(-c3ccc4nncn4c3)cc(N3CCC[C@@H](NC(=O)c4ccc(Cl)s4)C3)c12 [Example 252],4
9,"Nc1ncnn2c(-c3ccn4nnnc4c3)cc(N3CCC[C@@H](NC(=O)c4ccc(Cl)s4)C3)c12 [Example 253, (R)-N-(1-(4-amino-7-(tetrazolo[1,5-a]pyridin-7-yl)pyrrolo[2,1-f][1,2,4]triazin-5-yl)piperidin-3-yl)-5-chlorothiophene-2-carboxamide]",2
10,Cc1nnc2ccc(-c3cc(N4CCC[C@@H](NC(=O)c5ccc(Cl)s5)C4)c4c(N)ncnn34)cn12 [Example 254],23
11,"CC(=O)N1CC=C(c2cc(N3CCC[C@@H](NC(=O)c4ccc(C)s4)C3)c3c(N)ncnn23)C1 [Example 255, (R)—N-(1-(7-(1-acetyl-2,5-dihydro-1H-pyrrol-3-yl)-4-aminopyrrolo[2,1-f][1,2,4]triazin-5-yl)piperidin-3-yl)-5-methylthiophene-2-carboxamide]",10
12,"COc1cc(C(=O)N[C@@H]2CCCN(c3cc(C4=CCN(C(C)=O)C4)n4ncnc(N)c34)C2)sn1 [Example 256, (R)—N-(1-(7-(1-acetyl-2,5-dihydro-1H-pyrrol-3-yl)-4-aminopyrrolo[2,1-f][1,2,4]triazin-5-yl)piperidin-3-yl)-3-methoxyisothiazole-5-carboxamide]",0.5
13,"CC(=O)N1CC=C(c2cc(N3CCC[C@@H](NC(=O)c4cccc(-n5cnnc5)c4)C3)c3c(N)ncnn23)C1 [Example 257, (R)—N-(1-(7-(1-acetyl-2,5-dihydro-1H-pyrrol-3-yl)-4-aminopyrrolo[2,1-f][1,2,4]triazin-5-yl)piperidin-3-yl)-3-(4H-1,2,4-triazol-4-yl)benzamide, TFA]",65
14,"COc1cnccc1C(=O)N[C@@H]1CCCN(c2cc(C3=CCN(C(C)=O)C3)n3ncnc(N)c23)C1 [Example 258, (R)—N-(1-(7-(1-acetyl-2,5-dihydro-1H-pyrrol-3-yl)-4-aminopyrrolo[2,1-f][1,2,4]triazin-5-yl)piperidin-3-yl)-3-methoxyisonicotinamide]",67
15,"COCC(=O)N1CC=C(c2cc(N3CCC[C@@H](NC(=O)c4sc(Cl)cc4OCCN4CCOCC4)C3)c3c(N)ncnn23)C1 [Example 259, (R)—N-(1-(4-amino-7-(1-(2-methoxyacetyl)-2,5-dihydro-1H-pyrrol-3-yl)pyrrolo[2,1-f][1,2,4]triazin-5-yl)piperidin-3-yl)-5-chloro-3-(2-morpholinoethoxy)thiophene-2-carboxamide]",28
16,"COC(C(=O)N1CC=C(c2cc(N3CCC[C@@H](NC(=O)c4sc(Cl)cc4OCCN4CCOCC4)C3)c3c(N)ncnn23)C1)C1CC1 (stereo partly drawn) [Example 260, N-((3R)-1-(4-amino-7-(1-(2-cyclopropyl-2-methoxyacetyl)-2,5-dihydro-1H-pyrrol-3-yl)pyrrolo[2,1-f] [1,2,4]triazin-5-yl)piperidin-3-yl)-5-chloro-3-(2-morpholinoethoxy)thiophene-2-carboxamide]",48
17,"CC1(C)CC1C(=O)N1CC=C(c2cc(N3CCC[C@@H](NC(=O)c4sc(Cl)cc4OCCN4CCOCC4)C3)c3c(N)ncnn23)C1 (stereo partly drawn) [Example 261, N-((3R)-1-(4-amino-7-(1-(2,2-dimethylcyclopropane-1-carbonyl)-2,5-dihydro-1H-pyrrol-3-yl)pyrrolo[2,1-f] [1,2,4]triazin-5-yl)piperidin-3-yl)-5-chloro-3-(2-morpholinocthoxy)thiophene-2-carboxamide]",32
18,"Nc1ncnn2c(C3=CCN(C(=O)C4(F)CC4)C3)cc(N3CCC[C@@H](NC(=O)c4sc(Cl)cc4OCCN4CCOCC4)C3)c12 [Example 263, (R)-N-(1-(4-amino-7-(1-(1-fluorocyclopropane-1-carbonyl)-2,5-dihydro-1H-pyrrol-3-yl)pyrrolo [2,1-f][1,2,4]triazin-5-yl)piperidin-3-yl)-5-chloro-3-(2-morpholinoethoxy)thiopbene-2-carboxamide]",12
19,"N#CC1(C(=O)N2CC=C(c3cc(N4CCC[C@@H](NC(=O)c5sc(Cl)cc5OCCN5CCOCC5)C4)c4c(N)ncnn34)C2)CC1 [Example 264, (R)-N-(1-(4-amino-7-(1-(1-cyanocyclopropane-1-carbonyl)-2,5-dihydro-1H-pyrrol-3-yl)pyrrolo[2,1-f][1,2,4]triazin-5-yl)piperidin-3-yl)-5-chloro-3-(2-morpholinoethoxy)thiophene-2-carboxamide]",12
20,"Nc1ncnn2c(C3=CCN(C(=O)C4CC45CC5)C3)cc(N3CCC[C@@H](NC(=O)c4sc(Cl)cc4OCCN4CCOCC4)C3)c12 (stereo partly drawn) [Example 265, N-((3R)-1-(4-amino-7-(1-(spiro[2.2]pentane-1-carbonyl)-2,5-dihydro-1H-pyrrol-3-yl)pyrrolo[2,1-f][1,2,4]triazin-5-yl)piperidin-3-yl)-5-chloro-3-(2-morpholinoethoxy)thiophene-2-carboxamide]",18
21,"CC1CC1C(=O)N1CC=C(c2cc(N3CCC[C@@H](NC(=O)c4sc(Cl)cc4OCCN4CCOCC4)C3)c3c(N)ncnn23)C1 (stereo partly drawn) [Example 266, N-((3R)-1-(4-amino-7-(1-(2-methylcyclopropane-1-carbonyl)-2,5-dihydro-1H-pyrrol-3-yl)pyrrolo[2,1-f][1,2,4]triazin-5-yl)piperidin-3-yl)-5-chloro-3-(2-morpholinoethoxy)thiopbene-2-carboxamide]",18
22,"Nc1ncnn2c(-c3ccnc(C(F)(F)F)c3)cc(N3CCC[C@@H](NC(=O)c4sc(Cl)cc4OCCN4CCOCC4)C3)c12 [Example 267, (R)—N-(1-(4-amino-7-(2-(trifluoromethyl)pyridin-4-yl)pyrrolo[2,1-f][1,2,4]triazin-5-yl)piperidin-3-yl)-5-chloro-3-(2-morpholinoethoxy)thiophene-2-carboxamide]",9
23,"CC(=O)N1CC=C(c2cc(N3CCC[C@@H](NC(=O)c4sc(C)cc4N4CCOCC4)C3)c3c(N)ncnn23)C1 [Example 268, (R)—N-(1-(7-(1-acetyl-2,5-dihydro-1H-pyrrol-3-yl)-4-aminopyrrolo[2,1-f][1,2,4]triazin-5-yl)piperidin-3-yl)-5-methyl-3-morpholinothiophene-2-carboxamide]",38
24,"CC(=O)N1CC=C(c2cc(N3CCC[C@@H](NC(=O)c4sc(C)cc4N4CCN(C)CC4)C3)c3c(N)ncnn23)C1 [Example 269, (R)—N-(1-(7-(1-acetyl-2,5-dihydro-1H-pyrrol-3-yl)-4-aminopyrrolo[2,1-f][1,2,4]triazin-5-yl)piperidin-3-yl)-5-methyl-3-(4-methylpiperazin-1-yl)thiophene-2-carboxamide]",31
25,"CC(=O)N1CC=C(c2cc(N3CCC[C@@H](NC(=O)c4cc(N5CCN(C)CC5)c(C)s4)C3)c3c(N)ncnn23)C1 [Example 270, (R)—N-(1-(7-(1-acetyl-2,5-dihydro-1H-pyrrol-3-yl)-4-aminopyrrolo[2,1-f][1,2,4]triazin-5-yl)piperidin-3-yl)-5-methyl-4-(4-methylpiperazin-1-yl)thiophene-2-carboxamide]",49
26,"CC(=O)N1CC=C(c2cc(N3CCC[C@@H](NC(=O)c4cc(N5CCOCC5)c(C)s4)C3)c3c(N)ncnn23)C1 [Example 271, (R)—N-(1-(7-(1-acetyl-2,5-dihydro-1H-pyrrol-3-yl)-4-aminopyrrolo[2,1-f][1,2,4]triazin-5-yl)piperidin-3-yl)-5-methyl-4-morpholinothiophene-2-carboxamide]",22

# Source: patent publication US20260250290A1 (BRISTOL-MYERS SQUIBB COMPANY, priority 2023, published 2026)
